System: BT20 Cell
Assay: Cancer Cell Lysate Total L-Glutamate Assay
Assay type: cell-based
Details: Homo sapiens, BT-20, 2 h, total L-glutamate in cell lysate, BT20 cells, 2 hour incubation with test compound
Experimental: Cancer Cell Lysate Total L-Glutamate Assay
Cancer cell lines (BT20, HCT116, SKOV3, HCC70, SUM149, MDA-MB-231, etc.) were plated in 96 well plates and were used for the total L-glutamate assay when the monolayer was ca. 80% confluent. The media was changed and fresh media containing L-glutamine was added to the 96 well plates, just before incubation of the cells with test compound. The test compound was diluted in 100% DMSO using a two-fold or three-fold serial dilution. Small volumes of the dilutions of test compound were added to the 96 well plates so the final DMSO concentration was 0.5% v/v in the cell culture medium. The cells were incubated at 37° C., 5% CO2, and 95% air for 2 hours. Following the 2 hour incubation, the cells were washed with water 2 times. After the last water wash, 100 μL of 50 mM Tris-HCl pH 7.4 and 0.01% Tween-20 was added to each well and the plate was frozen at −80° C. The 96 well plate was frozen and thawed a total of 3 times and then sonicated for 5 min at 4° C. in a bath sonicator. Following sonication, the 96 well plate was centrifuged for 5 min at 1000 rpm and 10 μL of the supernatant was transferred to a 384 well assay plate.
Total L-glutamate (L-glutamic acid) in the cell lysis supernatant was detected using glutamate oxidase, horseradish peroxidase and Amplex Red reagent (10-acetyl-3,7-dihydroxy phenoxazine, Invitrogen # A22177). In this assay, L-glutamate was oxidized by glutamate oxidase to produce alpha-ketoglutarate (2-oxopentane dioic acid), NH3 and H202. The H2O2 (hydrogen peroxide) was used by horseradish peroxidase (HRP) to oxidize the Amplex Red Reagent to resorufin which is a fluorescent molecule. When resorufin is excited with light with a wavelength 530-560 nm, it emits light at approximately 585 nm. For detection of total L-glutamate in 10 μL of lysate, 15 μL of an enzyme mixture was added to each well of the 384 well assay plate. The enzyme mixture consisted of 50 mM Tris-HCl pH 7.4, 0.01% Tween-20, 50 μM Amplex Red reagent (final concentration), 0.04 U/mL L-glutamate oxidase (final concentration), and 0.125 U/mL HRP (final concentration). The 384 well assay plate was incubated at room temperature for 5 min and then the fluorescence intensity of each well was measured at 585 nm using a 530-560 nm excitation wavelength in a plate based fluorimeter such as an LJL Analyst or a Tecan Infinite plate reader. Standard curves were constructed for this assay using dilutions of a L-glutamate standard. IC50 were calculated by plotting the relative fluorescent units vs log of the inhibitor concentration and fitting the data to the four parameter logistic equation.
Reference: Chapman J. and Zhou M. (1999) Microplate-based fluorometric methods for the enzymatic determination of I-glutamate: application in measuring I-glutamate in food samples. Analytica Chim Acta 402:47-52.

Row | SMILES | IC50
1 | CC(=O)Nc1nnc(C2CC[C@H](Cc3nnc(NC(=O)Cc4ccccn4)s3)C2)s1 (single isomer, unassigned) [Example 19, N-[5-({(cis)-3-[5-(acetylamino)-1,3,4-thiadiazol-2-yl]cyclopentyl}methyl)-1,3,4-thiadiazol-2-yl]-2-(pyridin-2-yl)acetamide] | 1470 nM
2 | CCC(=O)Nc1nnc([C@H]2C[C@@H](Cc3nnc(NC(=O)Cc4ccccn4)s3)C2)s1 (single isomer, unassigned) [Example 105, N-{5-[cis-3-({5-[(pyridin-2-ylacetyl)amino]-1,3,4-thiadiazol-2-yl}methyl)cyclobutyl]-1,3,4-thiadiazol-2-yl}propanamide] | 9.5 nM
3 | CC(=O)Nc1nnc(C2CCC(C)(c3nnc(NC(C)=O)s3)C2(C)C)s1 (racemic) [Example 60, N,N′-{[-1,2,2-trimethylcyclopentane-1,3-diyl]di-1,3,4-thiadiazole-5,2-diyl}diacetamide] | 274 nM
4 | O=C(Cc1ccccc1)Nc1ccc(C[C@H]2CC[C@@H](c3nnc(NC(=O)Cc4ccccn4)s3)C2)nn1 (single isomer, unassigned) [Example 81, 2-phenyl-N-(6-{[(cis)-3-{5-[(pyridin-2-ylacetyl)amino]-1,3,4-thiadiazol-2-yl}cyclopentyl]methyl}pyridazin-3-yl)acetamide] | 4.5 nM
5 | O=C(Cc1ccccn1)Nc1ccc(C[C@H]2CC[C@@H](c3nnc(NC(=O)Cc4ccccn4)s3)C2)nn1 (single isomer, unassigned) [Example 71, 2-(pyridin-2-yl)-N-{5-[(cis)-3-({6-[(pyridin-2-ylacetyl)amino]pyridazin-3-yl}methyl)cyclopentyl]-1,3,4-thiadiazol-2-yl}acetamide] | 2.7 nM
6 | CCC(=O)Nc1ccc(C[C@@H]2CC[C@H](c3nnc(NC(=O)CCOC)s3)C2)nn1 (single isomer, unassigned) [Example 90, 3-methoxy-N-{5-[(cis)-3-{[6-(propanoylamino)pyridazin-3-yl]methyl}cyclopentyl]-1,3,4-thiadiazol-2-yl}propanamide] | 1.3 nM
7 | CC(=O)Nc1nnc([C@H]2CC[C@@H](Cc3nnc(NC(=O)Cc4ccccn4)s3)C2)s1 (single isomer, unassigned) [Example 17, N-[5-({(cis)-3-[5-(acetylamino)-1,3,4-thiadiazol-2-yl]cyclopentyl}methyl)-1,3,4-thiadiazol-2-yl]-2-(pyridin-2-yl)acetamide] | 12.2 nM
8 | C[C@H](C(=O)Nc1nnc(C[C@H]2CC[C@@H](c3nnc(NC(=O)[C@H](C)c4cccnc4)s3)C2)s1)c1cccnc1 (single isomer, unassigned) [Example 34, 2-(pyridin-3-yl)-N-(5-{[(cis)-3-(5-{[2-(pyridin-3-yl)propanoyl]amino}-1,3,4-thiadiazol-2-yl)cyclopentyl]methyl}-1,3,4-thiadiazol-2-yl)propanamide] | 942 nM
9 | CC(=O)Nc1ccc(C[C@@H]2CC[C@H](c3nnc(NC(=O)Cc4ccccn4)s3)C2)nn1 (single isomer, unassigned) [Example 69, N-{5-[(cis)-3-{[6-(acetylamino)pyridazin-3-yl]methyl}cyclopentyl]-1,3,4-thiadiazol-2-yl}-2-(pyridin-2-yl)acetamide] | 2.5 nM
10 | C[C@@H](C(=O)Nc1nnc(C[C@@H]2CC[C@H](c3nnc(NC(=O)[C@H](C)c4cccnc4)s3)C2)s1)c1cccnc1 (single isomer, unassigned) [Example 37, 2-(pyridin-3-yl)-N-(5-{[(cis)-3-(5-{[2-(pyridin-3-yl)propanoyl]amino}-1,3,4-thiadiazol-2-yl)cyclopentyl]methyl}-1,3,4-thiadiazol-2-yl)propanamide] | 19.4 nM
11 | CCC(=O)Nc1ccc(C[C@@H]2CC[C@H](c3nnc(NC(=O)Cc4ccn(C)n4)s3)C2)nn1 (single isomer, unassigned) [Example 92, N-(6-{[(cis)-3-(5-{[(1-methyl-1H-pyrazol-3-yl)acetyl]amino}-1,3,4-thiadiazol-2-yl)cyclopentyl]methyl}pyridazin-3-yl)propanamide] | 0.2 nM
12 | C[C@@H](C(=O)Nc1nnc(C[C@H]2CC[C@@H](c3nnc(NC(=O)[C@H](C)c4cccnc4)s3)C2)s1)c1cccnc1 (single isomer, unassigned) [Example 36, 2-(pyridin-3-yl)-N-(5-{[(cis)-3-(5-{[2-(pyridin-3-yl)propanoyl]amino}-1,3,4-thiadiazol-2-yl)cyclopentyl]methyl}-1,3,4-thiadiazol-2-yl)propanamide] | 284 nM
13 | C[C@H](C(=O)Nc1nnc(C[C@@H]2CC[C@H](c3nnc(NC(=O)[C@H](C)c4cccnc4)s3)C2)s1)c1cccnc1 (single isomer, unassigned) [Example 38, 2-(pyridin-3-yl)-N-(5-{[(cis)-3-(5-{[2-(pyridin-3-yl)propanoyl]amino}-1,3,4-thiadiazol-2-yl)cyclopentyl]methyl}-1,3,4-thiadiazol-2-yl)propanamide] | 136 nM
14 | O=C(Cc1ccccn1)Nc1nnc(C[C@@H]2CC[C@H](c3nnc(NC(=O)Cc4ccccn4)s3)C2)s1 (single isomer, unassigned) [Example 2] | 1 nM
15 | CC(=O)Nc1nnc(CC2CCC(c3nnc(NC(=O)Cc4ccccn4)s3)C2)s1 (racemic) [Example 55, (rac)-N-{5-[(cis)-3-{[5-(acetylamino)-1,3,4-thiadiazol-2-yl]methyl}cyclopentyl]-1,3,4-thiadiazol-2-yl}-2-(pyridin-2-yl)acetamide] | 391 nM

Next, values leading:

Row | IC50 | SMILES
16 | 3.1 nM | O=C(Cc1ccccn1)Nc1ccc(C[C@H]2CC[C@@H](c3nnc(NC(=O)C[C@H]4CCCO4)s3)C2)nn1 (single isomer, unassigned) [Example 131]
17 | 7.1 nM | CC(=O)Nc1nnc([C@@H]2CC[C@H](Cc3nnc(NC(=O)Cc4cscn4)s3)C2)s1 (racemic) [Example 145, (rac)-N-[5-({(cis)-3-[5-(acetylamino)-1,3,4-thiadiazol-2-yl]cyclopentyl}methyl)-1,3,4-thiadiazol-2-yl]-2-(1,3-thiazol-4-yl)acetamide]
18 | 0.5 nM | Cn1ccc(CC(=O)Nc2nnc([C@H]3CC[C@@H](Cc4ccc(NC(=O)Cc5ccccn5)nn4)C3)s2)n1 (single isomer, unassigned) [Example 126, 2-(1-methyl-1H-pyrazol-3-yl)-N-{5-[(cis)-3-({6-[(pyridin-2-ylacetyl)amino]pyridazin-3-yl}methyl)cyclopentyl]-1,3,4-thiadiazol-2-yl}acetamide]
19 | 2.3 nM | O=C(Cc1ccccn1)Nc1ccc(C[C@@H]2CC[C@H](c3nnc(NC4CC4)s3)C2)nn1 (single isomer, unassigned) [Example 110, N-[6-({(cis)-3-[5-(cyclopropylamino)-1,3,4-thiadiazol-2-yl]cyclopentyl}methyl)pyridazin-3-yl]-2-(pyridin-2-yl)acetamide]
20 | 6.9 nM | CC(=O)Nc1nnc([C@@H]2CC[C@H](Cc3nnc(NC(=O)Cc4ccn(C)n4)s3)C2)s1 (racemic) [Example 146, (rac)-N-[5-({(cis)-3-[5-(acetylamino)-1,3,4-thiadiazol-2-yl]cyclopentyl}methyl)-1,3,4-thiadiazol-2-yl]-2-(1-methyl-1H-pyrazol-3-yl)acetamide]
21 | 0.2 nM | Cc1ccc(CC(=O)Nc2nnc([C@H]3C[C@@H](Cc4nnc(NC(=O)Cc5ccccn5)s4)C3)s2)nc1 (single isomer, unassigned) [Example 112, 2-(5-methylpyridin-2-yl)-N-{5-[cis-3-({5-[(pyridin-2-ylacetyl)amino]-1,3,4-thiadiazol-2-yl}methyl)cyclobutyl]-1,3,4-thiadiazol-2-yl}acetamide]
22 | 2.8 nM | O=C(Cc1ccccn1)Nc1nnc(C[C@H]2CC[C@@H](c3nnc(NC(=O)Cc4ccccn4)s3)C2)s1 (racemic) [Example 152, (rac)-2-(pyridin-2-yl)-N-(5-{[(cis)-3-{5-[(pyridin-2-ylacetyl)amino]-1,3,4-thiadiazol-2-yl}cyclopentyl]methyl}-1,3,4-thiadiazol-2-yl)acetamide]
23 | 120 nM | O=C(Cc1ccccn1)Nc1nnc(C2CCC(c3nnc(NC(=O)Cc4ccccn4)s3)C2)s1 (racemic) [Example 138, N,N′-[cyclopentane-1,3-diyldi-1,3,4-thiadiazole-5,2-diyl]bis[2-(pyridin-2-yl)acetamide]]

From patent US10676471B2, “Cycloalkyl-linked diheterocycle derivatives” (Pfizer Inc., priority 2014, dated 2020)
